Patent publication US5681842A, “Prostaglandin synthase-2 inhibitors” (Abbott Laboratories, priority 1996, dated 1997)

Columns and labels:
recombinant human PGHS-2 = target: T1, recombinant human PGHS-2 (Homo sapiens, UniProt P35354); experiment: Recombinant human PGHS-2 enzyme assay (PGE2 by EIA); assay type: biochemical; settings: for inhibition at 0.1 µM: 100 nM compound, microsomes, 60 min preincubation, 10 μM arachidonic acid, read-out: RHuPGHS-2 (% I @ 100 nM)
T1 construct: made in house; host or cells: baculovirus/Sf9 insect cells (microsomes)
T1 sequence (P35354 18-604): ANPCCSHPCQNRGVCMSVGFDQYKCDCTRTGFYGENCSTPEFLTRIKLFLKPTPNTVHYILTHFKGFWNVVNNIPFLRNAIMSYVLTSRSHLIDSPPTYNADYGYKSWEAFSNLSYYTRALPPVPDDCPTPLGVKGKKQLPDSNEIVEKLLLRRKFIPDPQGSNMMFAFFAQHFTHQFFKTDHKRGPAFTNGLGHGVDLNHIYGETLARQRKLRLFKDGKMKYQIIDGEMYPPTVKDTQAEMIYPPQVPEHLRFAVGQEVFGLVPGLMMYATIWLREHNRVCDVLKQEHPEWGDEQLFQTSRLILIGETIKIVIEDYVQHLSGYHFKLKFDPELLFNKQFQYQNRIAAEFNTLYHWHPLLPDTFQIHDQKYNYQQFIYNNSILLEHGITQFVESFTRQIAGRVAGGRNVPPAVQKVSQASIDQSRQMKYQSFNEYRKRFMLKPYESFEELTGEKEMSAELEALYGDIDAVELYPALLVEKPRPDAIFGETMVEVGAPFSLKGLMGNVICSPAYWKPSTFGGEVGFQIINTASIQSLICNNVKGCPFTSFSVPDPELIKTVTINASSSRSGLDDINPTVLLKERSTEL
Description: (§1) A compound of the invention dissolved in DMSO (3.3% v/v) was preincubated with microsomes from recombinant human PGHS-1 or PGHS-2 expressed in the baculovirus/Sf9 cell system (Gierse, J. K., Hauser, S. D., Greely, D. P., Koboldt, C., Rangwala, S., H., Isakson, P. C., and Seibert, K. "Expression and selective inhibition of the constitutive and inducible forms of cyclooxygenase", Biochem J. 305:479 (1995)), together with the cofactors phenol (2 mM) and hematin (1 μM) for 60 minutes prior to the addition of 10 μM arachidonic acid. The reaction was allowed to run for 2.5 minutes at room temperature prior to quenching with HCl and neutralization with NaOH. PGE2 production in the presence and absence of the drug was determined by EIA analysis.
(§2) EIA reagents for prostaglandin determination were purchased from Perseptive Diagnostics, Cambridge, Mass. PGE2 levels in lavage fluids were determined after the samples were dried under nitrogen and reconstituted with assay buffer. PGE2 levels in enzyme assays or cell culture media were measured against standards prepared in the same milieu. The immunoassays were conducted as recommended by the manufacturer. The EIA was conducted in 96 well microtiter plates (Nunc Roskilde, Denmark) and optical density measured using a microplate reader (Vmax, Molecular Devices Corp., Menlo Park, Calif.).

recombinant human PGHS-1 = target: T2, recombinant human PGHS-1 (Homo sapiens, UniProt P23219); experiment: Recombinant human PGHS-1 enzyme assay (PGE2 by EIA); assay type: biochemical; settings: 100 μM compound; microsomes, 60 min preincubation, 10 μM arachidonic acid; read-out: RHuPGHS-1 (% I @ 100μM)
T2 construct: made in house; host or cells: baculovirus/Sf9 insect cells (microsomes)
Description: as §1, §2

[1] = system: prostaglandin production in the pleural cavity; experiment: Carrageenan induced pleurisy test (CIP); assay type: in vivo, Sprague-Dawley rats; settings: rats, 10 mg/kg oral, 30 minutes prior to intrapleural carrageenan; lavage four hours after
Description: as §2
Inhibition of carrageenan induced pleurisy in rats was determined essentially as described by F. B. De Brito, (Pleurisy and Pouch Models of Acute Inflammation in Pharmalogical Methods in the Control of Inflammation, Eds, J. Y. Chang and A. J. Lewis, Alan Liss Inc., New York: 173-194, 1989) and Vinegar et al. ("Quantitative studies of the pathway to acute carrageenan inflammation", Fed. Proc., 35:2447-2456 (1976)). Briefly, eight Sprague-Dawley rats were orally dosed with 10 mg/kg of a compound of the invention 30 minutes prior to intrapleural injection of 2% lambda carrageenan (Sigma Chemical Co., St. Louis Mo.). Four hours after carrageenan injection, the animals were euthanized and their pleural cavities lavaged with ice cold saline. The lavage fluid was then added to two volumes of ice cold methanol (final methanol concentration 66%) to lyse cells and precipitate protein. Prostaglandin levels in the methanol/lavage fluid were then determined by EIA.

T2 sequence (P23219 24-599): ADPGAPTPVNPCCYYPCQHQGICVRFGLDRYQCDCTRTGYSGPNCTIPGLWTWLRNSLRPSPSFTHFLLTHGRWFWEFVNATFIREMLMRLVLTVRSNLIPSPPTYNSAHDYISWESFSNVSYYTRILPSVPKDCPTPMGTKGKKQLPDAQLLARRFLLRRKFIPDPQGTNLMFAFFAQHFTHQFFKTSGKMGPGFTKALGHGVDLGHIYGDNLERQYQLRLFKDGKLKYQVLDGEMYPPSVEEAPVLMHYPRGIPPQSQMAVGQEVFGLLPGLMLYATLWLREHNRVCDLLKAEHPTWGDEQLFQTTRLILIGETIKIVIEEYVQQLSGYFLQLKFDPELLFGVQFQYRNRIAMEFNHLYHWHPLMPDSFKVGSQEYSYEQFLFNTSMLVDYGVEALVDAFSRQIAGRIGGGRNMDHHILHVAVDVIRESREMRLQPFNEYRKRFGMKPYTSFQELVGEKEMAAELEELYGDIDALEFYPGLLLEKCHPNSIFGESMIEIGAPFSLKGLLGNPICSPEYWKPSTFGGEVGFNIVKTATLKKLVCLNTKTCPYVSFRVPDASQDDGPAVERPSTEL

Structure (SMILES) | inhibitory potency against recombinant human PGHS-2 (in words) (recombinant human PGHS-2) | inhibition at 0.1 µM (recombinant human PGHS-2) | inhibition at 100 µM (recombinant human PGHS-1) | inhibition of prostaglandin production in the pleural cavity [1]
CS(=O)(=O)Nc1ccc([N+](=O)[O-])cc1Oc1ccc2c(c1)OCO2 [Example 5, N-(4-Nitro-2-(1,3-benzodioxol-6-yloxy)phenyl)methanesulfonamide] | most potent | 77% | 89% | 36%
CS(=O)(=O)Nc1ccc([N+](=O)[O-])cc1Oc1ccc2cc(F)ccc2c1 [Example 2, N-(4-Nitro-2-(6'-fluoro-naphth-2'-yloxy)phenyl)methanesulfonamide] |  | 56% | 26% | 20%
CS(=O)(=O)Nc1ccc([N+](=O)[O-])cc1Oc1ccc2ccccc2c1 [Example 1, N(4-Nitro-2-(naphth-2'-yloxy)phenyl)methanesulfonamide] |  | 65% | 47% | 
CS(=O)(=O)Nc1ccc([N+](=O)[O-])cc1Oc1ccc2sccc2c1 [Example 3, N-(4-Nitro-2-(benzothiophen-5'-yloxy)phenyl)methanesulfonamide] |  | 59% | 89% | 48%
CS(=O)(=O)Nc1ccc([N+](=O)[O-])cc1Oc1ccc2ncsc2c1 [Example 4] |  | 43% | 31% | 66%
